# Test results published in patent publication US20100324123A1, “GLMS RIBOSWITCHES, STRUCTURE-BASED COMPOUND DESIGN WITH GLMS RIBOSWITCHES, AND METHODS AND COMPOSITIONS FOR USE OF AND WITH GLMS RIBOSWITCHES” (Yale University, priority 2006, published 2010).
# Entries after “also recorded” stand apart in the source; their conditions may differ.
# System: glmS ribozyme from B. cereus
# Experiment: glmS ribozyme self-cleavage assay (5'-32P-labeled 200-nucleotide construct, PAGE)
# Format: biochemical, Bacillus cereus
# Conditions: not given
# Procedure: Differences from GlcN6P can be seen by comparing the structures to GlcN6P. b) Yields of ribozyme cleavage assays using a 200-nucleotide glmS RNA construct incubated with GlcN6P (1) or with various compounds as indicated. 5′ ^32P-labeled precursor (Pre) RNAs were incubated for 30 minutes in the presence of 1 mM effector as noted for each lane. […] Rate constants for the remaining compounds are estimated to be less than 0.001 min^−1.
# The molecular recognition characteristics of the glmS ribozyme was found by determining the effects of GlcN6P and various GlcN6P analogs on the self-cleavage activity of a 200-nucleotide glmS ribozyme construct from B. cereus (FIG. 1). KD values for each ligand were determined by plotting ribozyme rate constants versus ligand concentrations (Experimental Section). […] The amine group of the ligand is also known to be essential for ribozyme function (Winkler 2004; McCarthy 2005). […] Therefore, a series of analogs were tested (FIG. 2) to probe the importance of structural conformation of GlcN6P and of individual functional groups on the pyranose ring.
# The glmS ribozyme from B. cereus (FIG. 1a) was generated by in vitro transcription as described previously, (Roth 2006) 5′-^32P-radiolabeled, (Lim 2006) and purified by PAGE. Rate constants were established using methods and reaction conditions similar to those described previously (Roth 2006) with the exception that reaction mixtures contained 50 mM HEPES buffer (pH 7.5 at 23° C.) in place of Tris-HCl buffer. Ligand concentrations and incubation times used are defined for each assay. Ribozyme activity was established by quantitating the amounts of cleaved and uncleaved RNAs using a Typhoon imager (Amersham Biosciences).
row,Compound,reduction of the rate constant of ribozyme cleavage compared to 1
1,"NC1C(O)O[C@H](COP(=O)(O)S)C(O)[C@@H]1O (stereo partly drawn) [Compound 4, 2-amino-2-deoxy-D-glucose 6-thiophosphate]",approximately two orders of magnitude

# Same assay, conditions: FIG. 2b: 1 mM effector, 30 minutes; FIG. 2c: 100 μM; 50 mM HEPES pH 7.5
row,Compound,ribozyme activation / self-cleavage (in words)
1,"N[C@@H](C=O)[C@@H](O)[C@@H](O)[C@H](O)COP(=O)(O)O [Compound 2, 2-amino-2-deoxy-D-galactose 6-phosphate]",does not induce activity
2,"NC1C(O)O[C@H](COP(=O)(O)O)C(O)[C@H]1O (stereo partly shown) [Compound 13, 2-amino-2-deoxyallose 6-phosphate]",activity that is similar to GlcN6P
3,"CNC1C(O)O[C@H](COP(=O)(O)O)C(O)[C@@H]1O (stereo partly shown) [Compound 9, 2-methylamino-2-deoxyglucose 6-phosphate]",only a modest reduction in efficiency compared to GlcN6P
4,"NC1O[C@H](COP(=O)(O)O)[C@@H](O)[C@H](O)[C@H]1O (stereo partly shown) [Compound 7, 1-amino-1-deoxyglucose 6-phosphate]",does not support ribozyme cleavage; also recorded: lowest amount of cleavage
5,"CO[C@H]1O[C@H](COP(=O)(O)O)[C@@H](O)[C@H](O)[C@H]1N [Compound 6, methyl 2-amino-2-deoxy-α-D-glucose 6-phosphate]",precludes analog binding
6,"N[C@@H](CO)[C@@H](O)[C@H](O)[C@H](O)COP(=O)(O)O [Compound 3, 2-amino-2-deoxy-D-glucitol-6-phosphate]",no detectable activity
7,"CO[C@@H]1O[C@H](COP(=O)(O)O)[C@@H](O)[C@H](O)[C@H]1N [Compound 5, methyl 2-amino-2-deoxy-β-D-glucose 6-phosphate]",precludes analog binding

# Same assay, conditions: FIG. 2c, each at 100 μM
row,Compound,ribozyme self-cleavage activity as fraction of the activity exhibited by GlcN6P
1,"N[C@H]1CO[C@H](COP(=O)(O)O)[C@@H](O)[C@@H]1O [Compound 8, 2-amino-1,5-anhydro-2-deoxyglucitol 6-phosphate]",1/70
2,"N[C@H](C=O)[C@@H](O)[C@H](O)[C@H](O)COP(=O)(O)O [Compound 12, 2-amino-2-deoxy-D-mannose 6-phosphate]",1/35

# System: glmS ribozyme
# Experiment: activity by electrophoretic in-line probing (gel electrophoresis methods)
# Format: binding
# Conditions: not given
row,Compound,Activity by electrophoretic in-line probing
1,"Cl.N[C@H]1C(O)O[C@H](CO)[C@@H](O)[C@@H]1O (stereo partly drawn) [Gln com, D-(+)-glucosamine hydrochloride, reference compound]",Yes
2,"N[C@H]1CO[C@H](COP(=O)(O)O)[C@@H](O)[C@@H]1O [Compound 8, 2-amino-1,5-anhydro-2-deoxyglucitol 6-phosphate]",Yes
3,"N[C@H](C=O)[C@@H](O)[C@H](O)[C@H](O)COP(=O)(O)O [Compound 12, 2-amino-2-deoxy-D-mannose 6-phosphate]",Yes
4,"CC(=O)N[C@H]1C(O)O[C@H](COP(=O)(O)O)[C@@H](O)[C@@H]1O (stereo partly drawn) [AcNGln 6P, N-acetyl-D-glucosamine 6-phosphate]",Weakly
5,"CNC1C(O)O[C@H](COP(=O)(O)O)C(O)[C@@H]1O (stereo partly shown) [Compound 9, 2-methylamino-2-deoxyglucose 6-phosphate]",Yes
6,"NC1C(O)O[C@H](COP(=O)(O)S)C(O)[C@@H]1O (stereo partly drawn) [Compound 4, 2-amino-2-deoxy-D-glucose 6-thiophosphate]",No
7,"C[N+](C)(C)[C@@H](C=O)[C@@H](O)[C@H](O)[C@H](O)CO [Me3N-Gln, 2-deoxy-2-(trimethylammonio)-D-glucose]",No
8,"NC1O[C@H](COP(=O)(O)O)[C@@H](O)[C@H](O)[C@H]1O (stereo partly shown) [Compound 7, 1-amino-1-deoxyglucose 6-phosphate]",No
9,"CO[C@H]1O[C@H](COP(=O)(O)O)[C@@H](O)[C@H](O)[C@H]1N [Compound 6, methyl 2-amino-2-deoxy-α-D-glucose 6-phosphate]",No
10,"N[C@@H](CO)[C@@H](O)[C@H](O)[C@H](O)COP(=O)(O)O [Compound 3, 2-amino-2-deoxy-D-glucitol-6-phosphate]",No
11,"N[C@H]1C(O)O[C@H](COP(=O)(O)O)[C@@H](O)[C@@H]1O (stereo partly shown) [Compound 1, glucosamine-6-phosphate, reference compound]",Yes
12,"CO[C@@H]1O[C@H](COP(=O)(O)O)[C@@H](O)[C@H](O)[C@H]1N [Compound 5, methyl 2-amino-2-deoxy-β-D-glucose 6-phosphate]",No
13,"N[C@@H]1[C@@H](O)[C@H](O)[C@@H](COP(=O)(O)O)O[C@@H]1O [Gln6P com, reference compound]",Yes

# System: glmS ribozymes
# Experiment: not given
# Conditions: cited from earlier work
Compound,ribozyme activation (in words),GlcN6P bound by the ribozyme more tightly than glucosamine [fold],"concentration needed to induce ribozyme activation to the same extent as GlcN6P, relative to GlcN6P [fold]"
NCCO [ethanolamine],orders of magnitude less effective than GlcN6P,–,–
"Cl.N[C@H]1C(O)O[C@H](CO)[C@@H](O)[C@@H]1O (stereo partly drawn) [Gln com, D-(+)-glucosamine hydrochloride, reference compound]",–,> 1000,–
NC(CO)CO [serinol],orders of magnitude less effective than GlcN6P,–,–
N[C@H]1C(O)O[C@H](COS(=O)(=O)O)[C@@H](O)[C@@H]1O (stereo partly shown) [glucosamine-6-sulphate],–,–,~100
O=C[C@H](O)[C@@H](O)[C@H](O)[C@H](O)COP(=O)(O)O [glucose-6-phosphate],completely fails to trigger ribozyme action,–,–

# Same assay, conditions: removal of the phosphate group; cited from earlier work
row,Compound,loss of ligand affinity (in words)
1,"Cl.N[C@H]1C(O)O[C@H](CO)[C@@H](O)[C@@H]1O (stereo partly drawn) [Gln com, D-(+)-glucosamine hydrochloride, reference compound]",an even greater loss of ligand affinity

# Biological target: glmS ribozyme from B. cereus
# Experiment: not given
# Conditions: read-out: apparent dissociation constant (KD); cited from earlier work
row,Compound,Kd [µM]
1,"N[C@H]1C(O)O[C@H](COP(=O)(O)O)[C@@H](O)[C@@H]1O (stereo partly shown) [Compound 1, glucosamine-6-phosphate, reference compound]",~200

# System: glmS ribozyme
# Experiment: high-throughput fluorescence screen with bimolecular glmS ribozyme (fluorescein/cy3-labeled substrate)
# Format: biochemical, S. aureus
# Conditions: high-throughput fluorescence screen, fluorescence ratio
row,Compound,Fl21 h/Flg h
1,"N[C@@H](C=O)[C@@H](O)[C@@H](O)[C@H](O)COP(=O)(O)O [Compound 2, 2-amino-2-deoxy-D-galactose 6-phosphate]",1.69
2,"Cl.N[C@H]1C(O)O[C@H](CO)[C@@H](O)[C@@H]1O (stereo partly drawn) [Gln com, D-(+)-glucosamine hydrochloride, reference compound]",1.87
3,"N[C@H]1CO[C@H](COP(=O)(O)O)[C@@H](O)[C@@H]1O [Compound 8, 2-amino-1,5-anhydro-2-deoxyglucitol 6-phosphate]",2.52
4,"N[C@H](C=O)[C@@H](O)[C@H](O)[C@H](O)COP(=O)(O)O [Compound 12, 2-amino-2-deoxy-D-mannose 6-phosphate]",2.89
5,"CC(=O)N[C@H]1C(O)O[C@H](COP(=O)(O)O)[C@@H](O)[C@@H]1O (stereo partly drawn) [AcNGln 6P, N-acetyl-D-glucosamine 6-phosphate]",2.28
6,"CNC1C(O)O[C@H](COP(=O)(O)O)C(O)[C@@H]1O (stereo partly shown) [Compound 9, 2-methylamino-2-deoxyglucose 6-phosphate]",3.49
7,"NC1C(O)O[C@H](COP(=O)(O)S)C(O)[C@@H]1O (stereo partly drawn) [Compound 4, 2-amino-2-deoxy-D-glucose 6-thiophosphate]",1.11
8,"C[N+](C)(C)[C@@H](C=O)[C@@H](O)[C@H](O)[C@H](O)CO [Me3N-Gln, 2-deoxy-2-(trimethylammonio)-D-glucose]",1.17
9,"NC1O[C@H](COP(=O)(O)O)[C@@H](O)[C@H](O)[C@H]1O (stereo partly shown) [Compound 7, 1-amino-1-deoxyglucose 6-phosphate]",1.00
10,"CO[C@H]1O[C@H](COP(=O)(O)O)[C@@H](O)[C@H](O)[C@H]1N [Compound 6, methyl 2-amino-2-deoxy-α-D-glucose 6-phosphate]",1.07
11,"N[C@@H](CO)[C@@H](O)[C@H](O)[C@H](O)COP(=O)(O)O [Compound 3, 2-amino-2-deoxy-D-glucitol-6-phosphate]",0.80
12,"N[C@H]1C(O)O[C@H](COP(=O)(O)O)[C@@H](O)[C@@H]1O (stereo partly shown) [Compound 1, glucosamine-6-phosphate, reference compound]",3.36
13,"CO[C@@H]1O[C@H](COP(=O)(O)O)[C@@H](O)[C@H](O)[C@H]1N [Compound 5, methyl 2-amino-2-deoxy-β-D-glucose 6-phosphate]",1.02
14,"N[C@@H]1[C@@H](O)[C@H](O)[C@@H](COP(=O)(O)O)O[C@@H]1O [Gln6P com, reference compound]",2.24

# Same assay, conditions: ~160 μM glucosamine-6-phosphate, minimum of 10 hours incubation
row,Compound,increase of fluorescence intensity of fluoroscein [fold]
1,"N[C@H]1C(O)O[C@H](COP(=O)(O)O)[C@@H](O)[C@@H]1O (stereo partly shown) [Compound 1, glucosamine-6-phosphate, reference compound]",~4

# System: not given
# Experiment: not given
# Conditions: not given
row,Compound,melting point
1,"N[C@H]1CO[C@H](COP(=O)(O)O)[C@@H](O)[C@@H]1O [Compound 8, 2-amino-1,5-anhydro-2-deoxyglucitol 6-phosphate]",185 to 187 °C (dec.)
2,"CNC1C(O)O[C@H](COP(=O)(O)O)C(O)[C@@H]1O (stereo partly shown) [Compound 9, 2-methylamino-2-deoxyglucose 6-phosphate]",185 to 187 °C (dec.)
3,"C[N+](C)(C)C1C(O)O[C@H](COP(=O)(O)O)C(O)[C@@H]1O (stereo partly shown) [Me3N-Gln 6P, 2-(trimethylammonio)-2-deoxyglucose 6-phosphate]",185 to 187 °C (dec.)

# Biological target: homologous ribozyme from Bacillus subtilis
# Experiment: not given
# Conditions: Bacillus subtilis glmS ribozyme; read-out: apparent dissociation constant (KD); cited from earlier work
row,Compound,Kd [µM]
1,"N[C@H]1C(O)O[C@H](COP(=O)(O)O)[C@@H](O)[C@@H]1O (stereo partly shown) [Compound 1, glucosamine-6-phosphate, reference compound]",~200
